Experimental data from patent US20250034127A1, “AUTOPHAGY INDUCING COMPOUNDS AND USES THEREOF, IN PARTICULAR FOR DISEASES OF THE CNS” (Samsara Therapeutics Inc., priority 2021, published 2025).

Test system: primary culture of dopaminergic Tyrosine hydroxylase (TH)-positive neurons
Experiment: Cellular model of Parkinson's disease (MPTP/MPP+ injury)
Assay type: cell-based, rat
Excerpt: This model (run by Neuro-Sys SAS, France) is based on a primary culture of dopaminergic Tyrosine hydroxylase (TH)-positive neurons injured with the dopaminergic neurons-specific toxin (DA-toxin) 1-methyl-4-phenyl-1,2,3,6 tetrahydropyridine (MPTP, a prodrug of MPP^+) (Dauer and Przedborski, 2003). Any substances reducing DA-toxin neurotoxicity may be useful as a new therapeutic agent for the treatment or prevention of PD.
Primary culture of mesencephalic neurons: Rat dopaminergic neurons were cultured as described by Visanji et al., 2008 and Callizot et al., 2019. Briefly, pregnant female rat (Wistar) of 15 days of gestation were killed using a deep anesthesia with CO2 chamber and a cervical dislocation. The midbrains obtained from 15-day-old rat embryos (Janvier, France) were dissected under a microscope. The embryonic midbrains will be removed and placed in ice-cold medium of Leibovitz (L15) containing 2% of Penicillin-Streptomycin (PS) and 1% of bovine serum albumin (BSA). The ventral portion of the mesencephalic flexure, a region of the developing brain rich in dopaminergic neurons, was used for the cell preparations.
The midbrains were dissociated by trypsinisation for 20 min at 37° C. (solution at a final concentration of 0.05% trypsin and 0.02% EDTA). The reaction was stopped by the addition of Dulbecco's modified Eagle's medium (DMEM) containing DNAase I grade II (0.5 mg/mL) and 10% of foetal calf serum (FCS). Cells were then mechanically dissociated by 3 passages through a 10 ml pipette. Cells were then centrifuged at 180×g for 10 min at +4° C. on a layer of BSA (3.5%) in L15 medium. The supernatant was discarded, and the cell pellets re-suspended in a defined culture medium consisting of Neurobasal supplemented with B27 (2%), L-glutamine (2 mM) and 2% of PS solution and 10 ng/mL of Brain-derived neurotrophic factor (BDNF) and 1 ng/ml of Glial-Derived Neurotrophic Factor (GDNF). Viable cells were counted in a Neubauer cytometer using the trypan blue exclusion test. The cells were seeded at a density of 40,000 cells/well in 96 well-plates (pre-coated with poly-L-lysine) and maintained in a humidified incubator at 37° C. in 5% CO2/95% air atmosphere. Half of the medium was changed every 2 days with fresh medium. The wells of first and last lines and columns […] (to avoid any edge effect) and were be filled with sterile water.
• i) Pre-incubation. On day 6 of culture, the test compounds were dissolved in PBS or DMSO and incubated for 1 hour before the MPTP exposure. • ii) Injury. One hour after the application of test compound, MPTP was added to a final concentration of 4 μM, diluted in control medium still in presence of compounds/inhibitors for 48 h. Test compounds were tested on one culture in 96-well plate (n=6 culture wells per condition).
Immunostaining: TH and α-Synuclein. 48 Hours after intoxication, the cell culture supernatant was removed, and the cells were fixed by a solution of 4% paraformaldehyde in PBS, pH=7.3 for 20 min at room temperature. The cells were washed twice in PBS, and then permeabilized. Non-specific sites were blocked with a solution of PBS containing 0.1% of saponin and 1% FCS for 15 min at room temperature. The cultures were incubated with: (a) monoclonal anti-Tyrosine Hydroxylase (TH) antibody produced in mouse at dilution of 1/10000 in PBS containing 1% FCS, 0.1% saponin, for 2 hours at room temperature, and (b) polyclonal anti-alpha synuclein (α-synuclein) antibody produced in rabbit at dilution of 1/200 in PBS containing 1% FCS, 0.1% saponin, for 2 h at room temperature.
Automatic computer analysis. For each condition, 20 pictures (representing the whole well area) were automatically taken using ImageXpress® (Molecular Devices) at 10× magnification (20 pictures, for TH and α-synuclein into TH neurons) using the same acquisition parameters. From images, analyses was directly and automatically performed by MetaXpress® (Molecular Devices). […]

[1] = 500 nM, compared to MPP+ injury alone

CCN1CCC(N(C)C(=O)c2csc(-c3cnn(-c4ccccc4)c3)n2)CC1 [Compound 196, N-(1-ethylpiperidin-4-yl)-N-methyl-2-(1-phenyl-1H-pyrazol-4-yl)-1,3-thiazole-4-carboxamide]
effects in the in vitro model of PD based on MPP+ injury: positive effects
decrease in α-syn area per dopaminergic TH positive neuron (100 nM, compared to MPP+ injury alone): 26%
decrease in α-syn area per dopaminergic TH positive neuron [1]: 35%
increase in the number of dopaminergic TH positive neurons [1]: 26%
decrease in α-syn area per dopaminergic TH positive neuron (1 μM, compared to MPP+ injury alone): 19%
